Experimental data reported in PubChem BioAssay (NCI).
Where “and” joins values, the source holds several entries; their conditions need not be identical. Equal entries are not always repeated.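 In this assay, cells in 96-well plates receive the compound at five concentrations for 48 hours. Endpoints are linearly interpolated between the surrounding concentrations. Abbreviation: GI50, concentration required for 50% inhibition of growth. TGI: total growth inhibition.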

Tests used:
Experiment in all cases: growth of human tumour cells (NCI), 48 h
A549 NSCLC = test system: A549 NSCLC
BT-549 breast = test system: BT-549 breast
CAKI-1 renal = test system: CAKI-1 renal
CCRF-CEM leukemia = test system: CCRF-CEM leukemia
COLO 205 colon = test system: COLO 205 colon
HCT-116 colon = test system: HCT-116 colon
MCF7 breast = test system: MCF7 breast
MOLT-4 leukemia = test system: MOLT-4 leukemia
NCI-H522 lung = test system: NCI-H522 lung
SF-268 CNS = test system: SF-268 CNS

Row | SMILES | GI50 (A549 NSCLC) | TGI (A549 NSCLC) | GI50 (BT-549 breast) | TGI (BT-549 breast) | GI50 (CAKI-1 renal) | TGI (CAKI-1 renal) | GI50 (CCRF-CEM leukemia) | TGI (CCRF-CEM leukemia) | GI50 (COLO 205 colon) | TGI (COLO 205 colon) | GI50 (HCT-116 colon) | TGI (HCT-116 colon) | GI50 (MCF7 breast) | TGI (MCF7 breast) | GI50 (MOLT-4 leukemia) | TGI (MOLT-4 leukemia) | GI50 (NCI-H522 lung) | TGI (NCI-H522 lung) | GI50 (SF-268 CNS) | TGI (SF-268 CNS)
1 | COc1cc(-c2nn(-c3cccc(NC(=O)c4cccc(C(F)(F)F)c4)c3)cc2-c2ccncc2)ccc1Cl | 1.87 µM | > 50 µM | 2.87 µM | 46.8 µM | 2.01 µM | > 50 µM | 1.45 µM | > 50 µM | 1.64 µM | 5.17 µM | 1.67 µM | > 50 µM | 1.43 µM | > 50 µM | 2.01 µM | > 50 µM | 1.05 µM | 3.85 µM | 2.13 µM | > 50 µM
2 | O=C1COc2c(CCNCCN(C(=O)CCNCCc3ccc(Cl)c(Cl)c3)C3CCCCC3)ccc(O)c2N1 | 21.8 µM | 44.8 µM | 14.3 µM | 29 µM | > 45.9 µM | > 74.9 µM | 11 µM | 27.6 µM | 14.8 µM | 32.3 µM | 14.6 µM | 28.4 µM | 11.9 µM | 27.8 µM | 15.8 µM | 34.5 µM | 15.2 µM | 32.3 µM | 14.7 µM | 30.3 µM
3 | COc1cc([C@H]2c3cc(O)c(OC)cc3C[C@]3(O)[C@@H]2CO[C@@H]3O)ccc1O |  | > 100 µM |  | > 100 µM |  | > 100 µM |  | > 100 µM |  | > 100 µM |  | > 100 µM |  | > 100 µM |  | > 100 µM |  | > 100 µM |  | > 100 µM
4 | COC(=O)C(NC(=O)c1ccccc1)c1ccc(OC)c(I)c1 (stereo not drawn) | 62.1 µM | > 100 µM | > 100 µM | > 100 µM | 77.6 µM | > 100 µM | 53.8 µM | > 100 µM | 80.8 µM | > 100 µM | 33.7 µM | > 100 µM | 39.5 µM | > 100 µM | 48.9 µM | > 100 µM | 43.6 µM | > 100 µM | > 100 µM | > 100 µM
5 | CS(=O)(=O)Nc1ccc(Nc2c3ccccc3nc3cc(Cl)ccc23)cc1 | 0.188 µM | 12.1 µM | 3.16 µM | 20 µM | 0.397 µM | 8.68 µM | 0.317 µM | 33.7 µM | 1.51 µM | 15.6 µM | 0.84 µM | 13.1 µM | 0.389 µM | 13.4 µM | 0.214 µM | 16.2 µM | 2.33 µM | 15.4 µM | 2.57 µM | 19.6 µM
6 | COc1cc2nccc(Oc3ccc(NC(=O)C4(C(=O)Nc5ccc(F)cc5)CC4)cc3)c2cc1OC | > 10 µM and 3.55 µM | > 61.4 µM | > 10 µM and 8.8 µM | > 10 µM and 72.4 µM | 5.87 µM and 3.61 µM | > 10 µM and 40.9 µM | > 10 µM and 3.65 µM | > 100 µM | 6 µM and 2.1 µM | > 10 µM and 4.63 µM | > 10 µM and 3.73 µM | > 41.5 µM | > 10 µM and 4.06 µM | > 54.2 µM | > 10 µM and 3.44 µM | > 59.1 µM | > 10 µM and 4.28 µM | > 45.3 µM | > 10 µM and 4.54 µM | > 100 µM
7 | N#Cc1c(N)nc(N2CCOCC2)c(C#N)c1-c1ccc(Cl)cc1Cl | 20.2 µM | 54.9 µM | 17.4 µM | 55.8 µM | 18.6 µM | 46.8 µM | 23.2 µM | 75 µM | 16.6 µM | 40.6 µM | 22.1 µM | 54.7 µM | 8.8 µM | 36.2 µM | 24.2 µM | > 100 µM | 4.77 µM | 18.4 µM | 14.2 µM | 35.6 µM
8 | CCc1c[nH]c2ncnc(N3CC[C@](N)(CNC(=O)c4ccc(F)cc4F)C3)c12 | 7.36 µM | > 95.5 µM | 0.797 µM | 18.1 µM | 8.62 µM | > 63.6 µM | 2.72 µM | > 91.2 µM | 8.12 µM | > 64.8 µM | 8.91 µM | > 100 µM | 0.716 µM | > 100 µM | 0.439 µM | 46.2 µM | 30.1 µM | > 100 µM | 33.3 µM | > 100 µM
9 | c1csc(-c2[nH]nc3c2CCc2ccccc2-3)c1 | 13 µM | 55.4 µM | 16.1 µM | 31.9 µM | 19.6 µM | 58.1 µM | 21.7 µM | 73.3 µM | 0.766 µM | 8.17 µM | 14.9 µM | 29.3 µM | 0.23 µM | 11.8 µM | 14.9 µM | 53.8 µM | 18.9 µM | 44.9 µM | 16.7 µM | 55 µM
10 | CC(C)c1nc(Cl)c(Cl)c(Cl)n1 |  | > 41.3 µM |  | 27.1 µM |  | 11.8 µM |  | 9.33 µM |  | 11.9 µM |  | 14.2 µM |  | 14.2 µM |  | 11.4 µM |  | 8.64 µM |  | 9.29 µM
11 | COc1cc2c(cc1OCCCN1CCN(CCCn3c4ccccc4c4ccccc43)CC1)N=C[C@@H]1CCCN1C2=O | 0.294 µM | 1.28 µM | 0.0587 µM | 0.288 µM | 0.148 µM | 1.17 µM | 0.0218 µM | 0.118 µM | 0.0749 µM | 0.235 µM | 0.156 µM | 3.93 µM | 0.0285 µM | 0.461 µM | 0.044 µM | 0.257 µM |  | 0.182 µM | 0.0362 µM | 0.289 µM
12 | O=C1C(=O)c2c(ccc3ccccc23)-c2ccccc21 | 2.83 µM | 8.3 µM | 2.05 µM | 4.62 µM | 2.7 µM | > 100 µM | 2.17 µM | > 100 µM | 2.24 µM | 6.55 µM | 0.384 µM | 2.87 µM | 1.53 µM | 3.48 µM | 2.37 µM | 6.83 µM | 1.32 µM | 3.13 µM | 1.77 µM | 5.73 µM
13 | CC(C)(CCc1nc2ccccc2[nH]1)C(=O)O |  | > 100 µM |  | > 100 µM |  | > 100 µM |  | > 100 µM |  | > 100 µM |  | > 100 µM |  | > 100 µM |  | > 100 µM |  | > 100 µM |  | > 100 µM
14 | O=C1OC(c2ccccc2)=N/C1=C\c1ccc(N(CCCl)CCCl)cc1 |  | > 100 µM |  | > 100 µM |  | > 100 µM |  | > 100 µM |  | > 100 µM |  | > 100 µM |  | > 100 µM |  | > 79.9 µM |  | > 95.7 µM |  | > 100 µM
15 | CC(=O)OC1CCC2(C)C(=CCC3C4CC(CN5CC5)C(=O)C4(C)CCC32)C1 (stereo not drawn) | 15.3 µM | 42.2 µM | 10.4 µM | 22.9 µM | 2.21 µM | 6.02 µM | 2.79 µM | 11.4 µM | 3.71 µM | 12 µM | 3.44 µM | 10.1 µM | 0.67 µM | 2.68 µM | 3.1 µM | 8.3 µM | 1.52 µM | 3.26 µM | 13.9 µM | 28.2 µM
16 | O=C(NCc1cccnc1)c1ccc([N+](=O)[O-])o1 | 2.54 µM | 7.28 µM | 9.77 µM | > 15.1 µM | 2.39 µM | 13.3 µM | 14.5 µM | > 32.5 µM | 0.659 µM | 1.28 µM | 1.42 µM | 13.4 µM | 0.973 µM | 5.21 µM | > 20 µM | > 32.5 µM | 0.141 µM | 0.602 µM | 4.83 µM | > 22.1 µM
17 | Cc1c(-c2ccc(N3CCc4cccc(C(=O)Nc5nc6ccccc6s5)c4C3)nc2C(=O)O)cnn1CC12CC3CC(CC(C3)C1)C2 | 4.97 µM | 25.3 µM | 3.73 µM | 16.4 µM | 8.35 µM | 23.4 µM | < 0.01 µM | 10.4 µM | 0.63 µM | 10.9 µM | 3.23 µM | 14.9 µM | 10.8 µM | 29.4 µM | < 0.01 µM |  | 10.8 µM | 28 µM | 8.05 µM | 24.8 µM
18 | COc1ccc(Cl)cc1Nc1nc(C(F)(F)F)ccc1C(=O)N/N=C/c1ccc(Cl)cc1 | 37.7 µM | > 100 µM | 0.108 µM | 0.932 µM | 5.37 µM | 29.7 µM | 0.594 µM | 10.3 µM | 2.76 µM | > 100 µM | 3.39 µM | 19.9 µM | 1.05 µM | > 100 µM | 1.76 µM | 11.1 µM | 4.16 µM | 42.5 µM | 1.96 µM | 27.9 µM
19 | COC(=O)/C(=C/c1ccc(OC)cc1)c1cc(OC)c(OC)c(OC)c1 |  | > 100 µM |  | > 100 µM |  | > 100 µM |  | > 55.7 µM |  | 13.7 µM |  | 55.3 µM |  | > 100 µM |  | > 97.5 µM |  | 4.58 µM |  | > 79.1 µM
20 | COc1ccc(-c2ccc(/C=N/n3c(COc4ccc(Cl)c(C)c4)nn(CN4CCOCC4)c3=S)o2)c([N+](=O)[O-])c1 | 19.3 µM | 96.8 µM | 34.6 µM | 85 µM | 23.6 µM | 57.1 µM | 19.3 µM | 56.2 µM | 39.8 µM | > 100 µM | 17.6 µM | 34.3 µM | > 100 µM | > 100 µM | 21.8 µM | 70.1 µM | 25.5 µM | > 100 µM | 33.8 µM | > 100 µM
